Data from ChEMBL document CHEMBL1201862, “PubChem BioAssay data set” (2004).
Active and inactive are the calls of the source.

What was measured:
Assay type in all cases: functional
[1] = target: T1, Replicative DNA helicase DnaB (Mycobacterium tuberculosis, UniProt P9WMR3); test: DnaB intein splicing inhibitors, dose response, biochemical, cell-free fluorescence (AID 449749)
T1 sequence (P9WMR3 whole entry): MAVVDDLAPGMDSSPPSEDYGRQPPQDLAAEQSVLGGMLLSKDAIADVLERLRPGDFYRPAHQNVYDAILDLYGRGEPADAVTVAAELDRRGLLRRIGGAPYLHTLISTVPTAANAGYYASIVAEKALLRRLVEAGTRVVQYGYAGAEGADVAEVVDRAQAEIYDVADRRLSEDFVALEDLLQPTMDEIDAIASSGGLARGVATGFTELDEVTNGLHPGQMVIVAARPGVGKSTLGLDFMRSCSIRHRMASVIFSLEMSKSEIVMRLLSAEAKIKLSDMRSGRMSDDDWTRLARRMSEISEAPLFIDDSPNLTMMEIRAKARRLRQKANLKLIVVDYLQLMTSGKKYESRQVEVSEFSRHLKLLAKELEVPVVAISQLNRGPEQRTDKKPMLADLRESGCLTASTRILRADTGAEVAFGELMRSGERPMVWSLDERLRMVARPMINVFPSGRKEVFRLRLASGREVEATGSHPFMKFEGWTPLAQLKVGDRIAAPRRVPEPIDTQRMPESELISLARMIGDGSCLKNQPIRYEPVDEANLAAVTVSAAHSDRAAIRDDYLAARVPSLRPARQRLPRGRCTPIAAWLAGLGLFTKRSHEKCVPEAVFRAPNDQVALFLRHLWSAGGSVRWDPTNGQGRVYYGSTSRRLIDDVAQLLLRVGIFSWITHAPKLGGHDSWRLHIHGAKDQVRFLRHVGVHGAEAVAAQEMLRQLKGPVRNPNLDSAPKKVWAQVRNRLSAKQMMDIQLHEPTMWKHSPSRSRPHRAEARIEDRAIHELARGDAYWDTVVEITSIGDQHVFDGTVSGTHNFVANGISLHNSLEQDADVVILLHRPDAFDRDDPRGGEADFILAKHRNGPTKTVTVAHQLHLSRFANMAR

[2] = target: T2, Apoptotic protease-activating factor 1 (Homo sapiens, UniProt O14727)
T2 sequence (O14727 whole entry): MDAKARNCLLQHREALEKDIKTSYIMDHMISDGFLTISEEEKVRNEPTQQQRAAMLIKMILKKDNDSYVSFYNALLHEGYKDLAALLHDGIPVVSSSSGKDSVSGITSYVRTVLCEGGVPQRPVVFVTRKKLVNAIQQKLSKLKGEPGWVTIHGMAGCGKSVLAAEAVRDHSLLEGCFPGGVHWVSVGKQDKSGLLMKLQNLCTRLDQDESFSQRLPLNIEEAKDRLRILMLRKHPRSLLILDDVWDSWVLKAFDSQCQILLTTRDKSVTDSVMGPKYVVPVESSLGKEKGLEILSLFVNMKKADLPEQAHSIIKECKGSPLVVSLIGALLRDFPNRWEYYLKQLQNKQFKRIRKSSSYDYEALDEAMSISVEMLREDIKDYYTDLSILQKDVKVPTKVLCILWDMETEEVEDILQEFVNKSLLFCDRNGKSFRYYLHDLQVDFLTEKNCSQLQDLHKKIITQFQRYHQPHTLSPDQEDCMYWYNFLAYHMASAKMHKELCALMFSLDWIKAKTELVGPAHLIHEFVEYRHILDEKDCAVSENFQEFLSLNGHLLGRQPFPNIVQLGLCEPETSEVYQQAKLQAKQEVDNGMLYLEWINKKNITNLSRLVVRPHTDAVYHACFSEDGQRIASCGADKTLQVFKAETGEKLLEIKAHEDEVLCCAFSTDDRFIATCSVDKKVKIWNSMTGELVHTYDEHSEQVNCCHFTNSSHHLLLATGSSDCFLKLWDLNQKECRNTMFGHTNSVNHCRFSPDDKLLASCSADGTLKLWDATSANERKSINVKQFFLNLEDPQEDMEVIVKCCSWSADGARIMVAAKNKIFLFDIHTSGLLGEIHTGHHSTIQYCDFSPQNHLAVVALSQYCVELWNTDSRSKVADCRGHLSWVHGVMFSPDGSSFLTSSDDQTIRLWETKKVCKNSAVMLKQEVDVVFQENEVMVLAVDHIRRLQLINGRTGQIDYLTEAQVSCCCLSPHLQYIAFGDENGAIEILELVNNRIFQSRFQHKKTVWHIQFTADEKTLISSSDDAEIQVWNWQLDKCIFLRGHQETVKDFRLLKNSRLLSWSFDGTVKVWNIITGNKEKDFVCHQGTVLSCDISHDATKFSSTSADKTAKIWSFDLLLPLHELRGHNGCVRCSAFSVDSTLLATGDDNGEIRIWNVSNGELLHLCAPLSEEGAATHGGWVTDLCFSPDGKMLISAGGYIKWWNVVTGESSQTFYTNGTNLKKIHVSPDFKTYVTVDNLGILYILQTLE

Protein RecA = target: T3, Protein RecA (Mycobacterium tuberculosis, UniProt P9WHJ3); test: Fluorescence Cell-Free Homogeneous Dose Retest to Identify Inhibitors of RecA-Intein Splicing Activity. [Related pubchem assays (depositor defined):AID2097, AID2223, AID489010, AID492950]
T3 sequence (P9WHJ3 whole entry): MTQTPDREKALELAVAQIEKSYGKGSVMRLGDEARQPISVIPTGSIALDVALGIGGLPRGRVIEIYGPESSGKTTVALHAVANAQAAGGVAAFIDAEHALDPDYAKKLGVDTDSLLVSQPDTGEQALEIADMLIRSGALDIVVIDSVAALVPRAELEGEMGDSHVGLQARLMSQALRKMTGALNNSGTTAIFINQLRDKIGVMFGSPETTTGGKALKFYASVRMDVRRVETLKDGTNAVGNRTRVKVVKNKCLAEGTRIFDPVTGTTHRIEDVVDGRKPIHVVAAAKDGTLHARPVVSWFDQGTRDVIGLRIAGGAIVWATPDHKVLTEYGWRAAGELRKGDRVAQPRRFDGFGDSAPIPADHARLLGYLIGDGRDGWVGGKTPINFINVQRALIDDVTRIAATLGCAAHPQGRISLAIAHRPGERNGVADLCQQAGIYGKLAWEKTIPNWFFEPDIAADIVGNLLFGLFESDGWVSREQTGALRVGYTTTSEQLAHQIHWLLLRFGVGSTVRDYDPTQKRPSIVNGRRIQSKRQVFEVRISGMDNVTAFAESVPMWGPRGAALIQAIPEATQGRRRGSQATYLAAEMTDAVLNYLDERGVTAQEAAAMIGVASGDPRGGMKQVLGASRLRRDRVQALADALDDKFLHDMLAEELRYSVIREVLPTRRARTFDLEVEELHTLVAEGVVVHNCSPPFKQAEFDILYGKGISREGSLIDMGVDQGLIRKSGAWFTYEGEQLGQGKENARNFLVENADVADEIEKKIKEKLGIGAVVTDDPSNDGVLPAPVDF

Oc1nc(Nc2ccccc2Cl)cc2ccccc12
active: AC50 [1] 9.33 µM | IC50 [2] 6.11 µM | EC50 (Protein RecA) 1.99 µM

Cc1nc2c(=O)n(C)c(=O)nc-2n(C)n1
active: AC50 [1] 0.0978 µM | IC50 [2] 0.0375 µM | EC50 (Protein RecA) 0.0209 µM
